Laboratory results from patent publication US20250230131A1, “NOVEL IONIZABLE LIPID AND LIPID NANOPARTICLE COMPOSITION USING SAME” (MediciBIO Co., Ltd, priority 2022, published 2025).

Key:
[1] = Size (diameter) and PDI of lipid nanoparticles by Dynamic Light Scattering; assay type: physicochemical; conditions: lipid nanoparticles of the ionizable lipid; diluted with PBS to mRNA 1 μg/mL; DLS
Experimental: (§1) The size and surface charge of lipid nanoparticles according to the ionizable lipid prepared in Example 1 were measured. To measure the size of the lipid nanoparticles, dilution was conducted using PBS to reach the concentration of mRNA contained in each lipid nanoparticle to 1 μg/mL, and Dynamic Light Scattering (DLS) of Malvern Zetasizer Nano (Malvern Instruments, UK) was applied to measure the diameter and a polydispersity index (hereinafter referred to as PDI) of lipid nanoparticles. In addition, in order to measure the surface charge of lipid nanoparticles, dilution was conducted using PBS to reach the concentration of mRNA contained in each lipid nanoparticle to 1 μg/mL, and the surface charge (zeta potential) was measured using the same equipment as above.

[2] = Surface charge (zeta potential) of lipid nanoparticles; assay type: physicochemical; conditions: diluted with PBS to mRNA 1 μg/mL
Experimental: as §1

[3] = Gene encapsulation efficiency, Quant-iT Ribogreen RNA Reagent and Kit; assay type: physicochemical; conditions: lipid nanoparticles, TE buffer vs 2% Triton-TE buffer
Experimental: To determine a gene encapsulation efficiency of lipid nanoparticles, the Quant-iT™ Ribogreen™ RNA Reagent and Kit was used. A stock solution for the calibration curve was prepared by taking 5 μL of the ribosomal RNA standard (100 μg/mL in TE buffer) and diluting it with either 245 μL of TE buffer or 0.4% Triton-TE buffer, respectively. Aliquots of 2, 5, 10, 25, and 50 μL of the stock solution were taken, diluted with TE buffer or 0.4% Triton-TE buffer to achieve a total volume of 100 μL, and then mixed with 100 μL of Quant-iT™ Ribogreen™ RNA Reagent; the fluorescence intensity (excitation 475 nm and emission 500˜550 nm) was measured to create a calibration curve. A volume of 5 μL of the nanoparticle solution prepared in Example 2 was taken and diluted with 245 μL of TE buffer (10 mM Tris-HCl, 1 mM EDTA, pH 7.5 in DEPC-treated water). After 50 μL of TE buffer or 50 μL of 2% Triton-TE buffer was added to 50 μL of the diluted nanoparticle solution, respectively, the mixture was incubated at 37° C. for about 10 minutes. Afterwards, 40 μL of each mixture was transferred to a microplate, and 60 μL of TE buffer and 100 μL of Quant-iT™ Ribogreen™ RNA Reagent were added sequentially to measure the fluorescence intensity. After calculating the gene dosage (T0) in the TE buffer and the gene dosage (T2) in the 2% Triton-TE buffer by substituting the measured fluorescence intensity into the calibration curve, the gene encapsulation efficiency was calculated using the following Mathematical Equation 1.

HeLa cells = assay: Intracellular gene delivery efficacy of FLuc mRNA-LNP (luciferase expression); assay type: cell-based, human; conditions: 0.25 μg/ml encapsulated FLuc mRNA, 6 hours
Experimental: To determine the intracellular gene delivery efficacy of lipid nanoparticles, lipid nanoparticles encapsulated with FLuc mRNA(Fluc mRNA-LNP) were used. To evaluate the gene delivery efficacy, HeLa cells (Korea Cell Line Bank, Seoul), human cervical cancer cell lines expressing low-density lipoprotein (LDL) receptors on the cell surface, were used, and cultured with the MEM medium containing 10% fetal bovine serum and penicillin/streptomycin at 37° C. in the presence of 5% CO2. HeLa cell lines were seeded at 2×10^4 cells per well in a 96-well plate, and after 16˜24 hours, the cells were treated with lipid nanoparticles at a concentration of 0.25 μg/ml based on encapsulated mRNA, in a total volume of 100 μl MEM medium per well in the absence or the presence of 10% fetal bovine serum (FBS).
To measure the expression of intracellular luciferase after FLuc mRNA delivery by lipid nanoparticles, the cells were washed with PBS after 6 hours of treatment. Then, and 100 μl of Glo-Lysis Buffer (Promega, WI, USA) was added to lyse the cells at room temperature for 5 minutes. The lysed cells were added with 100 μl of Steady-Glo™ Luciferase Assay solution (Promega) in a 1:1 ratio, left at room temperature for 5 minutes, and then transferred to a 96-well white plate. Luminescent values were detected using a GloMax Discover microplate reader (Promega). Recombinant luciferase (Promega) was used as the standard material to generate the calibration curve, which was used to determine the luciferase concentration (pg/ml) in the samples.

[4] = test system: mice of the C57BL/6 lineage; assay: Gene delivery efficiency in vivo, intravenous injection, liver luciferase expression; conditions: C57BL/6 mice, after 4 hours
Experimental: (§2) In order to identify the gene delivery efficacy and distribution of lipid nanoparticles in vivo, lipid nanoparticles were injected into 7-week-old mice of the C57BL/6 lineage either intravenously or intramuscularly in the thigh. The liver was extracted in the case of intravenous injection and the organs including the femoral muscle were extracted in the case of intramuscular injection by sacrificing the mice after 4 hours.
(§3) To determine the level of luciferase expression in tissue samples, the tissue sections were weighed and transferred to a tube containing 3 mm metal beads, and a homogenized by adding 500 μl of Glo-Lysis Buffer (Promega) per 50 mg of tissue. The supernatant from the centrifuged homogenates was collected and diluted with the Glo-Lysis Buffer to an appropriate ratio. The diluted homogenates and the Steady-Glo Luciferase Assay solution were then mixed in a 1:1 ratio, with 50 μl of each. After a 5-minute incubation, the luminescence values of luciferase were measured using the same method as described in Example 3-1, and the expression levels (ng/g tissue) of luciferase were calculated.

[5] = test system: mice of the C57BL/6 lineage; assay: Gene delivery efficiency in vivo, intramuscular injection in the thigh, muscle luciferase expression; conditions: femoral muscle, C57BL/6 mice, after 4 hours
Experimental: as §2, §3

Row | SMILES | PDI [1] | Particle size [1] | Surface Charge [2] | Gene encapsulation efficiency [3] | Luciferase expression level (Mean ± SD) (HeLa cells; 10% FBS) | Luciferase expression level (Mean ± SD) (HeLa cells; w/o FBS) | Luciferase expression level (Mean ± SD) [4] | Luciferase expression level (Mean ± SD) [5]
1 | CCCCCCCCC(CCCCCC)C(=O)OCCCCCCN(CCCCCCOC(=O)C(CCCCCC)CCCCCCCC)Cc1ccc(N)cc1 (centres unmarked) [Compound 3, ((4-aminobenzyl)azanediyl)bis(hexane-6,1-diyl) bis(2-hexyldecanoate)] | 0.18 | 78 nm | −1.4 mV | 93.8% | – | – | – | –
2 | CCCCCCCCC(CCCCCC)C(=O)OCCCCCCN(CCCCCCOC(=O)C(CCCCCC)CCCCCCCC)CCC1CCNCC1 (centres unmarked) [Compound 1, ((2-(piperidin-4-yl)ethyl)azanediyl)bis(hexane-6,1-diyl) bis(2-hexyldecanoate)] | 0.09 | 121 nm | +29.1 mV | 99.7% | 16,060 ± 102 pg/ml | 16,685 ± 646 pg/ml | – | –
3 | CCCCCCCCC(CCCCCC)C(=O)OCCCCCCN(CCCCCCOC(=O)C(CCCCCC)CCCCCCCC)CCc1ccc(N)nc1 (centres unmarked) [Compound 4, ((2-(6-aminopyridin-3-yl)ethyl)azanediyl)bis(hexane-6,1-diyl) bis(2-hexyldecanoate)] | 0.13 | 84 nm | +2.0 mV | 78.2% | – | – | 6,844 ± 2,052 ng/g | –
4 | CCCCCCCCC(CCCCCC)C(=O)OCCCCCCN(CCCCCCOC(=O)C(CCCCCC)CCCCCCCC)CCCn1ccnc1C (centres unmarked) [Compound 5, ((3-(2-methyl-1H-imidazol-1-yl)propyl)azanediyl)bis(hexane-6,1-diyl) bis(2-hexyldecanoate)] | 0.08 | 104 nm | +19.9 mV | 93.5% | – | – | 2,582 ± 745 ng/g | 651 ± 158 ng/g
5 | CCCCCCCCC(CCCCCC)C(=O)OCCCCCCN(CCCCCCOC(=O)C(CCCCCC)CCCCCCCC)CCCn1cc(C)nc1C (centres unmarked) [Compound 6, ((3-(2,4-dimethyl-1H-imidazol-1-yl)propyl)azanediyl)bis(hexane-6,1-diyl)bis(2-hexyldecanoate)] | – | – | – | – | – | – | 1,172 ± 99 ng/g | 358 ± 74 ng/g
6 | CCCCCCCCC(CCCCCC)C(=O)OCCCCCCN(CCCCCCOC(=O)C(CCCCCC)CCCCCCCC)CCN1CCNCC1 (centres unmarked) [Compound 2, ((2-(piperazin-1-yl)ethyl)azanediyl)bis(hexane-6,1-diyl) bis(2-hexyldecanoate)] | 0.12 | 106 nm | +28.1 mV | 94.9% | 8,492 ± 2,375 pg/ml | 15,270 ± 2,273 pg/ml | – | –
